Data published in PMC9259545, “Impact of poly-arginine peptides R18D and R18 on alteplase and tenecteplase thrombolysis in vitro, and neuroprotective stability to proteolysis” (Journal of Thrombosis and Thrombolysis, 2022).
Non-standard residues stand in square brackets, D forms with d. Residues, ends and D or L forms follow the SMILES beside them.

Tests used:
[1] = system: plasmin; conditions: cited from earlier work
From the text: Given the potential future application of the R18D, R18 and NA-1 peptides as ischaemic stroke neurotherapeutics, it is important to establish if they interfere with current and future standard of care treatments, namely alteplase (tPA; recombinant tissue plasminogen activator) and tenecteplase (TNK; a modified version of tPA) thrombolysis, which are routinely administered prior to thrombectomy. […] NA-1 is also degraded by plasmin [8]. Together, these findings confirm that peptides synthesised with D-enantiomer amino acids such as R18D, unlike peptides synthesised with L-enantiomer amino acids are highly resistant to proteolytic degradation and are likely to retain their neuroprotective efficacy ...

[2] = biological target: T1, tPA (Homo sapiens, UniProt P00750); experiment: Halo clot thrombolysis assay, tPA thrombolysis of whole blood clots; format: biochemical; conditions: tPA 5 nM, 27.5% human plasma
T1 construct: purchased Boehringer Ingelheim, Germany 10 mg vial
T1 sequence (P00750 36-562): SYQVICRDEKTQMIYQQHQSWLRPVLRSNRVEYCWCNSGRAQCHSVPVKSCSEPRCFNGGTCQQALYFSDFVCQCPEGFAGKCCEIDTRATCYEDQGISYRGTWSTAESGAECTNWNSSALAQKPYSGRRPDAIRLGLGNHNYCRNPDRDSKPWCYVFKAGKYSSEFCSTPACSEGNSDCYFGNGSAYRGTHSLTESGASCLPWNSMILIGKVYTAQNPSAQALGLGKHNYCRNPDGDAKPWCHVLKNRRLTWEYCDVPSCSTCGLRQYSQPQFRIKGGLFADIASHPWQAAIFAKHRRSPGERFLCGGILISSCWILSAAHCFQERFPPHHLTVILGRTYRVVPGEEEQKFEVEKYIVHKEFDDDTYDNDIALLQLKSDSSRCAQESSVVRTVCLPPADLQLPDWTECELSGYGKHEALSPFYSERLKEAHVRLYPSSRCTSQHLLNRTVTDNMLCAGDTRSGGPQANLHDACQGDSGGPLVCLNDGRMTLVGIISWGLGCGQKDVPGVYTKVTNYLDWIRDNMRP
Description: (§1) We utilised a high throughput 96-well plate thrombolysis assay (“halo clot assay”) based on the procedure developed by Bonnard et al.. To reduce assay components the halo thrombus formation procedure was modified by replacing the original thrombotic mixture consisting of recombinant tissue factor and synthetic phospholipids reconstituted in 30 mM calcium, with thrombin, and reducing the pro-thrombotic volume (i.e., thrombin) from 5 to 3 µL and blood volume from 25 to 12 µL. Another modification to simplify clot formation consisted of adding the thrombin (3 µL; 500 nM in saline) to one side of the well and 12 µL of blood to the opposite side of well, before using a heat stretched Pasteur pipette with sealed end to mix the two liquids together using 4 to 5 circular motions around the edge of the well (halo clot). The original methodology involved adding the 5 μL of the clotting mixture to the edge of the well, and then using a micropipette to slowly release the 25 μL of blood to the edge of the well while at the same time maintaining a circular motion. Plates were incubated in a humidified 37 °C incubator for 1 h before use in the thrombolysis assay.
(§2) The thrombolysis assay involved adding 30 µL of Tris buffer (50 mM Tris–HCl, 100 mM NaCl, pH 7.4) with or without peptide followed by 55 µL Tris buffer containing tPA or TNK (5 nM final concentration) and 50% human plasma (final plasma concentration during thrombolysis 27.5%). The final concentration of peptide during thrombolysis ranged from 0.25 to 16 µM (note: an intravenous dose of R18D at 350 nmol/kg, which is likely to be neuroprotective achieves a Cmax of 0.7–0.9 µM in healthy male and female rats; unpublished observation). […] Following the addition of tPA or TNK into the wells, clot lysis was monitored over a 1-h period at 37 °C using a plate reader (Cytation5, BioTek, USA) by measuring absorbance at 510 nm every 1 min immediately after orbital shaking (205 rpm for 5 s). Controls consisted of wells with no thrombin (100% clot lysis; L100%) and wells with no tPA or TNK (0% clot lysis; L0%). At the 1-h time point, the percentage of thrombolysis (%T) in tPA or TNK treated samples (LTX) was calculated by transforming absorbance values based on the formula: % T = (LTX) − (L0%)/(L100%) − (L0%) × 100. In addition, during the 1-h period of clot lysis lag time and maximal activity (also known as maximum velocity or Vmax) of the thrombolysis reaction were calculated. The lag time is defined as the time interval between the first absorbance reading (time = 0) and the line of maximum slope of the thrombolysis reaction. The maximal activity is calculated from the maximum slope over the time course of the assay and reflects the capacity of an enzyme to catalyse a reaction (i.e., thrombolysis), with higher values representing higher catalytic activity (i.e., tPA/TNK induced plasmin thrombolysis).
(§3) For each thrombolysis assay, replicates for control wells (L0% and L100%) and tPA or TNK only treated wells consisted of n = 4–8. Replicates for tPA or TNK and peptide treated wells consisted of n = 4. For data analysis and graphical representations of the results, data from three independent thrombolytic assays were pooled. Studies consisted of R18D, R18 and NA-1 examined at the 0.5, 1, 2, 4, 8 or 16 µM concentrations performed concurrently on the same 96-well plate, in respective order. In addition, since R18D is known to be resistant to plasmin degradation and appeared to have the most impact on tPA or TNK thrombolysis, a separate set of three independent assays were performed for this peptide alone at concentrations of 0.25, 0.5, 1, 2, 4, 8 or 16 µM. Furthermore, the second dose study with R18D provided the opportunity to include a lower concentration (0.25 µM) of the peptide and to provide comparative data when only one peptide was examined in the thrombolysis assay per 96-well plate as opposed to examining the three peptides concurrently on the same plate. […]

[3] = intravenous dose 350 nmol/kg, healthy male and female rats; ref unpublished observation; cited from earlier work
[4] = system: tPA or TNK; format: biochemical, human; conditions: range over peptide concentrations 0.25-16 µM and both thrombolytics; 1-h assay
Description: as §1, §2
For each thrombolysis assay, replicates for control wells (L0% and L100%) and tPA or TNK only treated wells consisted of n = 4–8. Replicates for tPA or TNK and peptide treated wells consisted of n = 4. For data analysis and graphical representations of the results, data from three independent thrombolytic assays were pooled. Studies consisted of R18D, R18 and NA-1 examined at the 0.5, 1, 2, 4, 8 or 16 µM concentrations performed concurrently on the same 96-well plate, in respective order. […]

[5] = biological target: T2, TNK (Homo sapiens, UniProt P00750, H332A/K331A/N152Q/R333A/R334A/T138N); experiment: Halo clot thrombolysis assay, TNK thrombolysis of whole blood clots; format: biochemical; conditions: TNK 5 nM, 27.5% human plasma
T2 construct: purchased Boehringer Ingelheim 50 mg vial
T2 sequence (P00750 36-562 T138N/N152Q/K331A/H332A/R333A/R334A): as the sequence (P00750 36-562) above, with T103N, N117Q, K296A, H297A, R298A, R299A counted along it
Description: as §1, §2, §3

[6] = concurrent study, 0.5-16 µM peptide
[7] = peptide 16 µM, concurrent study, 37 °C
[8] = separate dose study, R18D alone, 0.25-16 µM

N=C(N)NCCC[C@@H](N)C(=O)N[C@H](CCCNC(=N)N)C(=O)N[C@H](CCCNC(=N)N)C(=O)N[C@H](CCCNC(=N)N)C(=O)N[C@H](CCCNC(=N)N)C(=O)N[C@H](CCCNC(=N)N)C(=O)N[C@H](CCCNC(=N)N)C(=O)N[C@H](CCCNC(=N)N)C(=O)N[C@H](CCCNC(=N)N)C(=O)N[C@H](CCCNC(=N)N)C(=O)N[C@H](CCCNC(=N)N)C(=O)N[C@H](CCCNC(=N)N)C(=O)N[C@H](CCCNC(=N)N)C(=O)N[C@H](CCCNC(=N)N)C(=O)N[C@H](CCCNC(=N)N)C(=O)N[C@H](CCCNC(=N)N)C(=O)N[C@H](CCCNC(=N)N)C(=O)N[C@H](CCCNC(=N)N)C(=O)O [R18D] (H-[dR][dR][dR][dR][dR][dR][dR][dR][dR][dR][dR][dR][dR][dR][dR][dR][dR][dR]-OH)
Neuroprotective properties in the glutamic acid excitotoxicity injury model when pre-incubated with plasmin [1]: retains its neuroprotective properties | Sensitivity to proteolytic degradation by plasmin [1]: not | Effect on tPA thrombolysis maximal activity vs tPA control [2, 6]: did not significantly impact tPA thrombolysis maximal activity | Increase in tPA lag time [2, 7]: 5.85 min | Effect on tPA lag time vs tPA control [2, 8]: did not significantly affect tPA lag time at any concentration | Effect on tPA thrombolysis maximal activity vs tPA control [2, 8]: did not significantly impact tPA thrombolysis maximal activity at any concentration | Effect on percentage tPA thrombolysis at 1 h vs tPA control ([2]; separate dose study, R18D alone, 0.25-16 µM, 37 °C, three independent assays): did not inhibit tPA thrombolysis | Effect on percentage tPA thrombolysis at 1 h vs tPA control ([2]; three peptides concurrently on the same plate, 0.5-16 µM peptide, Tris pH 7.4, 37 °C, absorbance 510 nm, three independent assays pooled, n = 4, Dunnett's test): did not significantly inhibit thrombolysis | Cmax [3]: 700 to 900 nM | Increase in lag time (time to the commencement of thrombolysis) [4]: 0 to 9.9 min | Effect on TNK thrombolysis maximal activity vs TNK control [5, 6]: did not significantly impact TNK thrombolysis maximal activity | Increase in TNK lag time ([5]; peptide 4 µM, concurrent study, 37 °C): 6.64 min | Decrease in TNK thrombolysis ([5]; peptide 4 µM, concurrent study, 37 °C, 1 h, p = 0.022): 9.35% | Increase in TNK lag time ([5]; peptide 8 µM, concurrent study, 37 °C): 9.9 min | Decrease in TNK thrombolysis ([5]; peptide 8 µM, concurrent study, 37 °C, 1 h, p = 0.044): 8.71% | Increase in TNK lag time [5, 7]: 8.76 min | Effect on TNK lag time vs TNK control [5, 8]: did not impact TNK lag time at any concentration | Effect on TNK thrombolysis maximal activity vs TNK control [5, 8]: did not significantly impact TNK thrombolysis maximal activity at any concentration | Effect on percentage TNK thrombolysis at 1 h vs TNK control ([5]; separate dose study, R18D alone, 0.25-16 µM, 37 °C, 1 h): did not inhibit TNK thrombolysis
